Results on eight compounds are retold here after US20060172920A1, “Oxidised lipids as reversal agents for boronic acid drugs” (priority 2004, published 2006).

In series [1] the target is T1, thrombin (Homo sapiens, UniProt P00734). Description: Thrombin assay, reversal of TRI 50c inhibition (Example 10, Methods A-C). Particulars: final concentration; TRI 50c 1 μM; Method A. It counts as biochemical. The method, then:
50 μl thrombin (33.3 ng/ml in assay buffer) and 20 μl vehicle or compound solution were added to 110 μl assay buffer (100 mM Na orthophosphate (80% Na2HPO4 and 20% NaH2PO4), 200 mM NaCl, 0.5% PEG 6000, 0.02% Na azide, pH 7.5) and incubated for 5 minutes at 37° C. […] Results are expressed as percentage change in thrombin activity. […] After the incubation period 100 μl of activated HDL (Method B) was added and further incubated for 30 minutes at 37° C.

Another series concerns thrombin clotting time. Description: Example 11: TRI 50b and lipoprotein antidote in rat, thrombin clotting time. Type of series: in vivo. The method, then:
The efficacy of a new specific antidote towards the dynamic activity of TRI 50b was evaluated in a rat study (n=15) (Male and Female rats circa 250-300 g).
Male and female rats were anaesthetised and arterial blood sampling lines placed.
The antidote was prepared from a bovine lipoprotein following oxidation, ultrafiltration and Concentration.
The study was divided into three groups as follows: • TRI 50b alone at a dose of 2.0 mg/kg intravenously (0.8 ml/kg: Prepared in 25% ethanol/saline) • Antidote alone (5.0 ml/kg) • TRI 50b followed by administration of the antidote.
Blood samples were taken from an arterial line into 3.8% tri-sodium citrate and plasma prepared by centrifugation.
Dynamic activity of TRI 50b was assessed in plasma samples by measurement of the thrombin clotting time.
200 ml of Lipocell (Lipoprotein fraction, Intergen catalogue number 4505-01, Lot number WT18002) was incubated at 37° C. for 37 hours. The Lipocell was then concentrated by centrifugation. The sample contained in an Amicon Centriprep YM-3 centrifugal concentrator was spun at 3800 rpm in an IEC Centra 3C centrifuge for 30 minutes at RT. The concentrated samples were pooled and centrifuged twice more to a final volume of around 50 mls. The sample was stored at 4° C.

The target in series [2] is T1, thrombin. Description: Ki of hydrogen peroxide-treated TRI-50b against thrombin (Dixon plots). Type of series: biochemical. Particulars: after hydrogen peroxide (3.0%) 2 hours at RT. The procedure: The loss of activity of boropeptides when contacted with peroxide compounds was apparently due to the removal of the boronic acid moiety (as was observed upon treatment of TRI-50b with hydrogen peroxide). The boron provides at least four orders of binding energy to the peptide sequence because of the formation of a transition state-like adduct with the active site serine. […] 1 volume TRI-50b (15 mg/ml in DMSO) was added slowly to 10 volumes of hydrogen peroxide (3.0%) for 2 hours at RT. The Ki for inhibition of thrombin activity was carried out using Dixon plots. The initial rate of cleavage of S2302 (a chromogenic substrate for thrombin) by thrombin (28 nM) was determined at the different concentrations of substrate in the presence of varying concentrations of the oxidised inhibitor. This loss of binding energy was observed as a 20,000 fold increase in the Ki against thrombin (FIG. 15).

Series [3] has as its system human thrombin. Kind of series: Quenching of TRI-50b neutralising activity by N-acetyl cysteine (Method B). Type of series: biochemical. The procedure:
Method B Method as A except that the measurement was made at a single time point. The incubation period was 20 minutes with plasma samples and 1 minute with the purified lipoproteins. Results are given as the overall percentage activity relative to a control without inhibitor. If lipid peroxides are involved in the inactivation then, the addition of n-acetyl-cysteine (NAC), a powerful anti-oxidant should reduce the neutralising activity. (NAC has been used historically to mop up reactive oxygen species). […] Plasma (1 in 10 dilution in buffer A) was incubated with 1.0 mM cupric sulphate for 4 hours. Increasing concentrations of n-acetyl cysteine were then added and also to BLp (1 in 10 dilution in buffer A). The neutralisation of TRI-50b was measured by Method B (Materials and Methods). Plasma, ▪-▪, BLp ▴-▴. A reduction in neutralising activity, to approximately base-line levels was observed when increasing concentrations of NAC were added to plasma or the bovine lipoprotein fraction (FIG. 14).

Series [4] deals with human thrombin. Kind of series: Total neutralising capacity towards peptide boronates (Method C). It counts as biochemical. Particulars: for maximum number of boronate molecules destroyed by BLp: BLp in the absence of Cu2+. The method, then: Method C. 20 μl of TRI-50b dissolved in DMSO was added to 313 μl of bovine lipoprotein (diluted 1 in 10 in Buffer A, see method A above) to achieve a range of final concentrations of 164, 333, 490, 660, 820, 990, 1150, 1320 and 1480 μM, respectively. Samples were removed at timed intervals and diluted 1 in 20 with buffer A. The concentration of TRI-50b in 25 μl of this mixture was determined as described in Method A. Residual TRI-50b was determined from a standards curve. The change in concentration of TRI-50b was calculated by subtracting the residual concentration from the starting concentration.
BLp was incubated at 37° C. in the presence or absence of 1 mM cupric sulphate, Samples were taken at timed intervals and added to varying concentrations of TRI-50b up to 1.5 mM. The residual TRI-50 b was measured by Method C (Materials and Methods). —Cu^2+ […]-[…]; +Cu^2+ ▴-▴. In FIG. 10 are shown the results of an experiment in which the total mass of neutralising activity of bovine lipoprotein was determined. Increasing concentrations of TRI-50b up to 1.5 mM were added to a ten-fold dilution of the BLp fraction (OD280 nm=4.0). A rapid neutralisation of TRI-50b was observed reaching a maximum beyond which the neutralising capacity was totally exhausted. In the absence of Cu^2+, the maximum mass of TRI-50b that was neutralised was equivalent to 0.8 mM. The concentration of BLp in the mixture was 1.9 g/l or 0.0038 mM. Thus around 200 moles of TRI-50b were neutralised per mole of lipoprotein. In the presence of Cu^2+, the maximum mass of TRI-50b that was neutralised was higher and equivalent to 320 moles/mole.
A similar experiment was carried out with dilutions of plasma (FIG. 11). […] Plasma at varying dilutions was incubated at 37° C. in the presence of 1 mM cupric sulphate. Samples were taken at timed intervals and added to varying concentrations of TRI-50b up to 1.5 mM. The residual TRI-50 b was measured by Method C (Materials and Methods). 1 in 3, […]-[…]; 1 in 6, ▴-▴; 1 in 12, ▾-▾; 1 in 3 without Cu^2+, ▪-▪. […]
The low-density lipoprotein particle contains a single molecule of a 500 kDa protein and 1500 molecules of esterified cholesterol. […] Samples were taken at timed intervals and the residual TRI-50b concentration was determined by Method C (Materials and Methods).
In FIG. 13 are shown the observations made upon the neutralisation of a number of other peptide boronates by BLp added in the absence of Cu^2+, namely TRI-30, Z-D-Dpa-Pro-BoroMbg-Opin, TRI-26, Z-D-βNal-Pro-BoroIrg-Opin; TRI-142, Moc-D,L-Dpa-Pro-BoroMpg-Opinac. […] The residual concentration of boronate was determined by Method C (Materials and Methods).

The next series relates to normal human plasma. Kind of series: Ecarin clotting time in human plasma (Example 10, Method D). Type of series: biochemical. The note with it: 1-10 μM. The method, then: (§1) Ecarin was obtained from HTI (USA) whilst the normal human plasma was purchased from Precision Biologics via Alpha Laboratories (UK). Rat plasma was purchased from Harlan laboratories, UK.
(§2) TRI 50c was diluted in an assay buffer (100 mM sodium orthophoshate, 200 mM NaCl, 0.5% PEG 6000 and 0.02% sodium azide, pH 7.5) and incubated with normal human pooled or rat plasma (80% final) for 5 minutes at 37° C. Ecarin (100 μg/ml final) was added to the incubating solution. The clotting times were determined using a plate reader (Versamax, Molecular Devices Corporation) at 405 nm for up to 10 minutes at 37° C.

The next series deals with rat plasma. Kind of series: Ecarin clotting time in rat plasma (Example 10, Method D). Particulars: 10 μM; fresh rat plasma. Type of series: biochemical. The method, then: as §1, §2
The conditions of series [5]: PBS pH 7.2; cited from earlier work.
The conditions of series [6]: stored at −80° C.; cited from earlier work.

The pIC50 is the IC50 on a negative log10 scale, so that one unit is a factor of ten. A low value points to a high IC50.

pIC50: −log10 of the molar value. Several values for one entry are separate records, joined by “and”; a condition that tells them apart may be missing. Identical values can stand only once.

Take `O=S(=O)([O-])[O-].[Cu+2]` [CuSO4, copper sulphate]: at thrombin [1], the “concentration that began to reduce the inhibitory activity of TRI 50c” value is listed as “greater than 50 μM”.

Turning to `COCCC[C@H](NC(=O)[C@@H]1CCCN1C(=O)[C@@H](Cc1ccccc1)NC(=O)OCc1ccccc1)B1OC(C)(C)C(C)(C)O1` [TRI 50b, Cbz-(R)-Phe-Pro-BoroMpg-OPinacol], the “elevation of thrombin clotting time over base line” value with thrombin clotting time (2.0 mg/kg intravenously, two minutes post dose) amounted to 5.6 times base line. For the same compound, the “thrombin clotting time (TT)” value in the series on thrombin clotting time (2.0 mg/kg iv, 30 minutes post dose) amounted to 36 s. Besides, in the series with thrombin clotting time (2.0 mg/kg iv, post dose), the “time for thrombin clotting time to return to base line” value was no more than 60 min. Moreover, the thrombin clotting time in the series with thrombin clotting time (2.0 mg/kg iv, two minutes post dose) is 128 s and 138 s. Further, the “increase in the Ki against thrombin” value on thrombin [2] is recorded as 20,000 fold.

Turning to `CC(=O)NC(CS)C(=O)O` (stereo not shown) [NAC, n-acetyl-cysteine], the negative logarithm of the IC50 (pIC50) is roughly 2.70 in the series on human thrombin [3] (BLp (1 in 10 dilution)) and roughly 4.00 in the series on human thrombin [3] (oxidised plasma (1 in 10, 1.0 mM cupric sulphate 4 hours)).

Z-D-βNal-Pro-BoroIrg-Opin [TRI-26]: the “maximum number of boronate molecules destroyed by BLp” value (from here on “maximum number”) in the series on human thrombin [4] is reported as “around 65 moles/mole”.

With `COCCC[C@H](NC(=O)[C@@H]1CCCN1C(=O)[C@@H](Cc1ccccc1)NC(=O)OCc1ccccc1)B(O)O` [TRI 50c, Cbz-(R)-Phe-(S)-Pro-(R)-Mpg-B(OH)2], the “prolongation of ECT” value in the series with normal human plasma is “concentration dependent prolongation”. The ECT entry with rat plasma was “approximately 215 seconds”.

Consider “Moc-D,L-Dpa-Pro-BoroMpg-Opinac [TRI-142]”, for which, in the series with human thrombin [4], the “maximum number” value was “around 65 moles/mole”.

As to Z-D-Dpa-Pro-BoroMbg-Opin [TRI-30], the “maximum number” value with human thrombin [4] is listed as “around 80 moles/mole”.

For cholesteryl linoleate hydroperoxide, the “equivalence of TRI-50b neutralisation” value in the series on human thrombin [4] (44 μM hydroperoxide mixed with TRI-50b) is on record as “approximately 1 mole/mole”. For the same compound, the “solubility in aqueous buffers” value in series [5] is less than 20 µg/mL. Further, the storage stability entry in series [6] is given as “stable for at least six months”.
